Consider 13 compounds from patent US20240043427A1 (Gilead Sciences, Inc., priority 2020, published 2024).

The target of assay [1] is T1, CD73 (Homo sapiens (Human), UniProt P21589). Put plainly: MDA-MB-231 Cell Based CD73 Activity Assay. The settings on record: MDA-MB-231-GFP cells, RPMI medium with 10% human plasma, 200 uM AMP.
Assay [2] has as its target T1, CD73. Put plainly: CD73 Biochemical IC50 Assay. Conditions: CD73 0.3 nM, AMP 15 uM, 25 mM Tris pH 7.4, 5 mM MgCl2. The protocol: CD73 Biochemical IC50 Assay
Compound serial dilutions were pre-spotted into Thermo Nunc assay plate. 50 μL CD73 enzyme buffer (CD73 purchased from R&D system=0.6 nM, 25 mM Tris, pH 7.4, 5 mM MgCl2) was added into the assay plate and incubated for 15 mins. […] The samples were run using Rapid fire.

Assay [3] concerns the target T1, CD73. Format: biochemical. The settings on record: 1 mM NaH2PO4 in enzyme buffer, CD73 0.3 nM, AMP 15 uM.
For assay [4], the target named is T1, CD73. Briefly: MDA-MB-231 Cell Based CD73 Activity Assay (DMEM). Conditions: MDA-MB-231-GFP cells, DMEM medium with 10% human plasma, 200 uM AMP.

Values joined by “and” are separate entries in the source; they are usually repeats but may differ in a detail not shown here. Identical values can stand only once. Like-named read-outs stand apart in the source and are kept apart here. Bounds are passed on as bounds.

T1 sequence (P21589 27-574): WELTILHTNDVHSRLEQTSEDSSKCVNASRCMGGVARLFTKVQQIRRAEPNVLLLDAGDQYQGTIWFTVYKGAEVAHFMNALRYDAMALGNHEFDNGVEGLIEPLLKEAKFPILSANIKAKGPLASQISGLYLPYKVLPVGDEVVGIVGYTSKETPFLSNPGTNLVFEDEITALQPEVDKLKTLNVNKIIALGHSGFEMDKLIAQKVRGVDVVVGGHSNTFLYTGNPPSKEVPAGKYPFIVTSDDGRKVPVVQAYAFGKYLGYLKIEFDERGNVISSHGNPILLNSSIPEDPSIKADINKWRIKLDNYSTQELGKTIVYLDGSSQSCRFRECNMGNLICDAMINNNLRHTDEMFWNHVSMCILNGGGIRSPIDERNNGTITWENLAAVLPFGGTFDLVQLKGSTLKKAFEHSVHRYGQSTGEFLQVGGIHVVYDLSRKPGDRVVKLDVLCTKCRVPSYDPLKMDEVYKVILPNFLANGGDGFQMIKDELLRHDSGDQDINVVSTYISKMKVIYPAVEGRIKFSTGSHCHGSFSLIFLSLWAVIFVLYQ

`O=c1[nH]cc(-c2cc([C@H]3C[C@@H]3c3ccc(F)cc3)c3nc(C4CC4)cn3n2)c(=O)[nH]1` (racemic) [Example 86, 5-[2-cyclopropyl-8-[(1S,2S)-2-(4-fluorophenyl)cyclopropyl]imidazo[1,2-b]pyridazin-6-yl]-1H-pyrimidine-2,4-dione and 5-[2-cyclopropyl-8-[(1R,2R)-2-(4-fluorophenyl)cyclopropyl]imidazo[1,2-b]pyridazin-6-yl]-1H-pyrimidine-2,4-dione]: the results for the concentration for a half-maximal effect (EC50) at CD73 [1] and on CD73 [4] were 21.8 nM and 16.6 nM, respectively. The IC50 (commonly the point on the concentration scale where inhibition reaches its midpoint) at CD73 [2] turned out to be 152 nM; against CD73 [3], 5.66 nM.
With `O=c1[nH]cc(-c2cc([C@H]3C[C@@H]3c3ccc(Cl)c(F)c3)c3nccn3n2)c(=O)[nH]1` (racemic) [Example 98, 5-(8-((1S,2S)-2-(4-chloro-3-fluorophenyl)cyclopropyl)imidazo[1,2-b]pyridazin-6-yl)pyrimidine-2,4(1H,3H)-dione and 5-(8-((1R,2R)-2-(4-chloro-3-fluorophenyl)cyclopropyl)imidazo[1,2-b]pyridazin-6-yl)pyrimidine-2,4(1H,3H)-dione], the EC50 (commonly the concentration giving half of the maximal effect) at CD73 [1] was determined as 7.23 nM; on CD73 [4], 17.7 nM. In addition, the figures for the IC50 against CD73 [2] and against CD73 [3] were 16.4 nM and 2 nM, respectively.
As for `O=c1[nH]cc(-c2cc([C@H]3C[C@@H]3c3ccc4c(c3)OC(F)(F)O4)c3nccn3n2)c(=O)[nH]1` (racemic) [Example 110, 5-(8-((1S,2S)-2-(2,2-difluorobenzo[d][1,3]dioxol-5-yl)cyclopropyl)imidazo[1,2-b]pyridazin-6-yl)pyrimidine-2,4(1H,3H)-dione and 5-(8-41R,2R)-2-(2,2-difluorobenzo[d][1,3]dioxol-5-yl)cyclopropyl)imidazo[1,2-b]pyridazin-6-yl)pyrimidine-2,4(1H,3H)-dione], the EC50 at CD73 [1] stood at 7.5 nM; on CD73 [4], 28.7 nM. Further, the IC50 at CD73 [2] came out at 31.4 nM; against CD73 [3], 2.96 nM.
`N#Cc1ccc([C@H]2C[C@@H]2c2cc(-c3c[nH]c(=O)[nH]c3=O)nn3ccnc23)cc1F` (racemic) [Example 115, 4-((1S,2S)-2-(6-(2,4-dioxo-1,2,3,4-tetrahydropyrimidin-5-yl)imidazo[1,2-b]pyridazin-8-yl)cyclopropyl)-2-fluorobenzonitrile]: the EC50 on CD73 [1] is 4.21 nM; at CD73 [4], 12.9 nM. Further, the IC50 on CD73 [2] was found to be 13.3 nM; on CD73 [3], 1.77 nM.
Take `O=c1[nH]cc(-c2cc(N3CCC(c4ccc(F)cc4)C3)c3nccn3n2)c(=O)[nH]1` (stereo in doubt) [Example 67, 5-[8-[(3R)-3-(4-fluorophenyl)pyrrolidin-1-yl]imidazo[1,2-b]pyridazin-6-yl]-1H-pyrimidine-2,4-dione]: the EC50 is 14.3 nM on CD73 [1] and 30.3 nM on CD73 [4]. In addition, the figures for the IC50 at CD73 [2] and against CD73 [3] were 30.1 nM and 4.83 nM, respectively.
The like results for `O=c1[nH]cc(-c2cc(N3CCCC3)c3nccn3n2)c(=O)[nH]1` [Example 9, 5-(8-pyrrolidin-1-ylimidazo[1,2-b]pyridazin-6-yl)-1H-pyrimidine-2,4-dione] were, in that order, 29.1 nM, 58.8 nM, 106 nM and 19.4 nM.
Take `O=c1[nH]cc(-c2cc(C3CC3)c3nccn3n2)c(=O)[nH]1` [Example 22, 5-(8-cyclopropylimidazo[1,2-b]pyridazin-6-yl)pyrimidine-2,4(1H,3H)-dione]: the EC50 was 46.3 nM and 45.1 nM at CD73 [1]; 104 nM on CD73 [4]. In addition, the IC50 was 55.8 nM and 64.9 nM at CD73 [2]; 35.5 nM on CD73 [3].
Turning to `O=c1[nH]cc(-c2cc(N3CC(C(F)(F)F)C3)c3nccn3n2)c(=O)[nH]1` [Example 62, 5-(8-(3-(trifluoromethyl)azetidin-1-yl)imidazo[1,2-b]pyridazin-6-yl)pyrimidine-2,4(1H,3H)-dione], the EC50 stood at 25.1 nM on CD73 [1] and 32.2 nM at CD73 [4]. Further, the IC50 on CD73 [2] turned out to be 27.2 nM; against CD73 [3], 8.47 nM.
Turning to `CC1(C)CN(c2cc(-c3c[nH]c(=O)[nH]c3=O)nn3ccnc23)C1` [Example 63, 5-(8-(3,3-dimethylazetidin-1-yl)imidazo[1,2-b]pyridazin-6-yl)pyrimidine-2,4(1H,3H)-dione], the figures for the EC50 at CD73 [1] and on CD73 [4] were 34.7 nM and 47.4 nM, respectively. For the same compound, the IC50 at CD73 [2] worked out at 70.5 nM; at CD73 [3], 29.1 nM.
The like results for `O=c1[nH]cc(-c2cc(N3CCC(F)(F)CC3)c3nccn3n2)c(=O)[nH]1` [Example 70, 5-[8-(4,4-difluoro-1-piperidyl)imidazo[1,2-b]pyridazin-6-yl]-1H-pyrimidine-2,4-dione] were, in that order, 240 nM, 285 nM, 221 nM and 134 nM.
With `CC1(C)CCN(c2cc(-c3c[nH]c(=O)[nH]c3=O)nn3ccnc23)C1` [Example 72, 5-[8-(3,3-dimethylpyrrolidin-1-yl)imidazo[1,2-b]pyridazin-6-yl]-1H-pyrimidine-2,4-dione], the figures for the EC50 on CD73 [1] and on CD73 [4] were 12.4 nM and 25.9 nM, respectively. Further, the IC50 was 26.5 nM on CD73 [2] and 6.97 nM on CD73 [3].
Taken in the same sequence, the figures for `O=c1[nH]cc(-c2cc(N3CCC(F)(F)C3)c3nccn3n2)c(=O)[nH]1` [Example 79, 5-[8-(3,3-difluoropyrrolidin-1-yl)imidazo[1,2-b]pyridazin-6-yl]-1H-pyrimidine-2,4-dione] were 11.7 nM, 20.8 nM, 25.2 nM and 4.58 nM.
As for `O=c1[nH]cc(-c2cc(N3CCCC(F)(F)C3)c3nccn3n2)c(=O)[nH]1` [Example 93, 5-(8-(3,3-difluoropiperidin-1-yl)imidazo[1,2-b]pyridazin-6-yl)pyrimidine-2,4(1H,3H)-dione], the results for the EC50 at CD73 [1] and on CD73 [4] were 556 nM and 685 nM, respectively. Moreover, the IC50 at CD73 [2] is 522 nM; against CD73 [3] it was above 250 nM.
